Measurements: US20080038728A1, “Quadruple Transformed Cell Line Useful for the Identification of Transport Inhibitors” (priority 2004, published 2008)

Legend:
[1] = test system: OATP1B1, OATP1B3, and OATP2B1; test: Uptake (intracellular accumulation) kinetics in ABCC2/OATP1B1/1B3/2B1 quadruple-transfected MDCKII cells; format: in vitro ADME, human; conditions: human, pH 7.3, cell line ABCC2-OATP1B1/1B3/2B1 (quadruple-transfectant); intracellular accumulation of 3H-labeled substrate; read-out: Km
Description: (§1) (a) MDCKII cells were grown on ThinCerts (24-mm diameter, pore size 0.4 μm, pore density 1×10^8 per cm^2) and induced with butyrate as mentioned above. The cells were washed in prewarmed (37° C.) transport buffer (142 mM NaCl, 5 mM KCl, 1 mM KH2PO4, 1.2 mM MgSO4, 1.5 mM CaCl2, 5 mM glucose, and 12.5 mM HEPES, pH 7.3). The ^3H-labeled substrate was dissolved in transport buffer and added either to the apical or to the basolateral compartment at the concentration indicated. After incubation at 37° C., the radioactivity in the opposite compartment was measured by sampling aliquots from the apical or basolateral compartment. Cells were washed 2 times with ice-cold transport buffer containing 0.5% bovine serum albumin and 3 times in ice-cold transport buffer. Intracellular accumulation of radioactivity was calculated by lyzing the cells with 0.2% sodium dodecyl sulfate (SDS) and measuring the radioactivity in the lysate.

[2] = target: T1, ABCC2 (Homo sapiens, UniProt Q92887); conditions: MDCK
Description: ATP-dependent transport into inside-out membrane vesicles prepared from MDCKII-ABCC2 single-transfectants (ABCC2, closed circles) or vector-transfected MDCKII cells (Control, open circles) was measured for 1, 3, and 5 min as described in Example 1. Data are means ±SD determined from 3 measurements.
Transport of estrone 3-sulfate into inside-out membrane vesicles was performed using nick spin columns as described (Keppler et al., 1998). Membrane vesicles were prepared from MDCKII vector-transfected control cells and MDCKII-ABCC2 single transfected cells described by Cui et al. (1999) and Letschert et al. (2005). ATP-dependent transport was determined by subtracting values obtained in the presence of 5′-AMP from those in the presence of ATP.

[3] = target: T2, OATP1B3 (Homo sapiens, UniProt Q9NPD5); test: Uptake (intracellular accumulation) kinetics in ABCC2/OATP1B3 double-transfected MDCKII cells; format: in vitro ADME; parameters: expressed in transfected cells; host or cells: MDCKII (canine kidney), co-expressing ABCC2; conditions: cell line ABCC2-OATP1B3, intracellular accumulation of 3H-labeled substrate
T2 sequence (Q9NPD5 1-702): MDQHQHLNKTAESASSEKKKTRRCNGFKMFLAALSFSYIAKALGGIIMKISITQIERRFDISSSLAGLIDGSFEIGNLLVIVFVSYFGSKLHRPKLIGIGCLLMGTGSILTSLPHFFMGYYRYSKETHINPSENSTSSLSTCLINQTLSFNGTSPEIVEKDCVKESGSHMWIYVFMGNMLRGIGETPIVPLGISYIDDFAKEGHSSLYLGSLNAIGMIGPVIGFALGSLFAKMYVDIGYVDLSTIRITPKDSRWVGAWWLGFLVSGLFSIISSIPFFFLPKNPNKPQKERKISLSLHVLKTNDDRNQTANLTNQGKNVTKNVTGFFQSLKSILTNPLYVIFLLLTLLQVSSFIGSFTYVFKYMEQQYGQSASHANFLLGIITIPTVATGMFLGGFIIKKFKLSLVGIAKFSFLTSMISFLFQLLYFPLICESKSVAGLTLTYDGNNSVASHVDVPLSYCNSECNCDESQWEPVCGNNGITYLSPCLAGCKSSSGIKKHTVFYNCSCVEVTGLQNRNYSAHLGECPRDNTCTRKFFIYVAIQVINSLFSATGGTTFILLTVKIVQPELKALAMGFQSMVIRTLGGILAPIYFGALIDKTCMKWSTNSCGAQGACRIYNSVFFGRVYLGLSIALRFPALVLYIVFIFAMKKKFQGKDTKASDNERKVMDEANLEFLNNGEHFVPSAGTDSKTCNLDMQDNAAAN
Description: as §1

[4] = target: T3, OATP2B1 (Homo sapiens, UniProt O94956); test: Uptake (intracellular accumulation) kinetics in ABCC2/OATP2B1 double-transfected MDCKII cells; format: in vitro ADME; parameters: expressed in transfected cells; host or cells: MDCKII (canine kidney) ABCC2 single-transfectant, further transfected with pcDNA3.1/Hygro(-)-OATP2B1; conditions: human, MDCKII cells double-transfected with ABCC2 and OATP2B1, pH 7.3; cell line ABCC2-OATP2B1; intracellular accumulation of 3H-labeled substrate; 5-min uptake
T3 sequence (O94956 1-709): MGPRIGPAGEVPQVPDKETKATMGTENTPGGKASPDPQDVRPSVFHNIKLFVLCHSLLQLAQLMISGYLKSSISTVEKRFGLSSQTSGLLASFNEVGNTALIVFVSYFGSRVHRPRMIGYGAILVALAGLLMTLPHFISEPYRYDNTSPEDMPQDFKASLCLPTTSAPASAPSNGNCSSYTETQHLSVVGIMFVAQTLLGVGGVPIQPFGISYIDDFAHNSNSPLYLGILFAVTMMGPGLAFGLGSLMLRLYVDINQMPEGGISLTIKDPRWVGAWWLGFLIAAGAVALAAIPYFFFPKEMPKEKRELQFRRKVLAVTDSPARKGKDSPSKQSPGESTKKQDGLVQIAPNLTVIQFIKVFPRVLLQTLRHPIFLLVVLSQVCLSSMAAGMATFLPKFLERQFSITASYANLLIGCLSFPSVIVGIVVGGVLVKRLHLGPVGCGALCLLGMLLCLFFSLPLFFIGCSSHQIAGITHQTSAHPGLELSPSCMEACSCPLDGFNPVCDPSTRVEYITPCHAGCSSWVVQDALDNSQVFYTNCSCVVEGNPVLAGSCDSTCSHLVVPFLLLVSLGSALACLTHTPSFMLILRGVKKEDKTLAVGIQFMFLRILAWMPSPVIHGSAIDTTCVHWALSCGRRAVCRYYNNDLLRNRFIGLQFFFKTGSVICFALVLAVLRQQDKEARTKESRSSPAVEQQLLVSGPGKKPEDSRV
Description: as §1, with “The cells were washed in prewarmed (37° C.) transport buffer (142 mM NaCl, 5 mM KCl, 1 mM KH2PO4, 1.2 mM MgSO4, 1.5 mM CaCl2, 5 mM glucose, and 12.5 mM HEPES, pH 7.3).” left out

[5] = test system: ABCC2 together with OATP1B1, OATP1B3, and OATP2B1; test: Transport studies (transcellular transport, intracellular accumulation) in all double- and quadruple-transfected MDCKII cells; format: in vitro ADME, human; conditions: all 3 double-transfected and quadruple-transfected MDCKII cells, 5 μM BSP 15 min, 1 μM E3S, 0.5 μM Fluva in basolateral compartment
Description: as §1
(b) Transport assays were further carried out as described in Cui et al., Mol. Pharmacol. 60 (2001), 934-43. The apical localization of MRP2 and the basolateral expression of OATP1B1, OATP1B3 and OATP2B1 in the quadruple transfectants was shown by the generation of polar proliferation of the cells after initial growing on Transwell membrane inserts (24 mm diameter, […] pore size, Corning Costar) and by use of confocal laser scanning microscopy. […]

[6] = target: T1, ABCC2; parameters: expressed in transfected cells; host or cells: MDCKII-ABCC2 single-transfected cells (membrane vesicles); conditions: BSP: Cui et al., 2001; CCK-8: Letschert et al., 2005; cited from earlier work
[7] = test system: MDCKII cell clones; test: Transcellular leakage of [3H]inulin across MDCKII cell monolayers; format: in vitro ADME, canine; conditions: 1 μM [3H]inulin in basolateral compartment, apical radioactivity after 30 min; all MDCKII cell clones
Description: The transcellular leakage was determined by addition of 1 μM [^3H]inulin to the basolateral compartment and measurement of the radioactivity appearing in the apical compartment after an incubation period of 30 min. The transcellular leakage was 1-2% of the radioactivity added for all MDCKII cell clones examined in this study.

[8] = substrate: CC(C)n1c(/C=C/C(O)CC(O)CC(=O)O)c(-c2ccc(F)cc2)c2ccccc21; test: cells, lysate or membranes named; conditions: intracellular accumulation of 3H-labeled substrate, 5-min uptake, pH 7.3, 37.0 °C
[9] = substrate: O=C1OC(c2ccc(O)c(S(=O)(=O)O)c2)(c2ccc(O)c(S(=O)(=O)O)c2)c2c(Br)c(Br)c(Br)c(Br)c21; test: Uptake (intracellular accumulation) kinetics in ABCC2/OATP2B1 double-transfected MDCKII cells; format: in vitro ADME, human; conditions: other: cell line ABCC2-OATP2B1; intracellular accumulation of 3H-labeled substrate; 5-min uptake; pH 7.3; 37.0 °C
Description: (§2) (a) MDCKII cells were grown on ThinCerts (24-mm diameter, pore size 0.4 μm, pore density 1×10^8 per cm^2) and induced with butyrate as mentioned above. […] The ^3H-labeled substrate was dissolved in transport buffer and added either to the apical or to the basolateral compartment at the concentration indicated. After incubation at 37° C., the radioactivity in the opposite compartment was measured by sampling aliquots from the apical or basolateral compartment. Cells were washed 2 times with ice-cold transport buffer containing 0.5% bovine serum albumin and 3 times in ice-cold transport buffer. Intracellular accumulation of radioactivity was calculated by lyzing the cells with 0.2% sodium dodecyl sulfate (SDS) and measuring the radioactivity in the lysate.

[10] = substrate: O=C1OC(c2ccc(O)c(S(=O)(=O)O)c2)(c2ccc(O)c(S(=O)(=O)O)c2)c2c(Br)c(Br)c(Br)c(Br)c21; test: Uptake (intracellular accumulation) kinetics in ABCC2/OATP1B1 double-transfected MDCKII cells; format: in vitro ADME, human; conditions: other: cell line ABCC2-OATP1B1; intracellular accumulation of 3H-labeled substrate; 5-min uptake; pH 7.3; 37.0 °C
Description: as §2

T1 sequence (Q92887 whole entry): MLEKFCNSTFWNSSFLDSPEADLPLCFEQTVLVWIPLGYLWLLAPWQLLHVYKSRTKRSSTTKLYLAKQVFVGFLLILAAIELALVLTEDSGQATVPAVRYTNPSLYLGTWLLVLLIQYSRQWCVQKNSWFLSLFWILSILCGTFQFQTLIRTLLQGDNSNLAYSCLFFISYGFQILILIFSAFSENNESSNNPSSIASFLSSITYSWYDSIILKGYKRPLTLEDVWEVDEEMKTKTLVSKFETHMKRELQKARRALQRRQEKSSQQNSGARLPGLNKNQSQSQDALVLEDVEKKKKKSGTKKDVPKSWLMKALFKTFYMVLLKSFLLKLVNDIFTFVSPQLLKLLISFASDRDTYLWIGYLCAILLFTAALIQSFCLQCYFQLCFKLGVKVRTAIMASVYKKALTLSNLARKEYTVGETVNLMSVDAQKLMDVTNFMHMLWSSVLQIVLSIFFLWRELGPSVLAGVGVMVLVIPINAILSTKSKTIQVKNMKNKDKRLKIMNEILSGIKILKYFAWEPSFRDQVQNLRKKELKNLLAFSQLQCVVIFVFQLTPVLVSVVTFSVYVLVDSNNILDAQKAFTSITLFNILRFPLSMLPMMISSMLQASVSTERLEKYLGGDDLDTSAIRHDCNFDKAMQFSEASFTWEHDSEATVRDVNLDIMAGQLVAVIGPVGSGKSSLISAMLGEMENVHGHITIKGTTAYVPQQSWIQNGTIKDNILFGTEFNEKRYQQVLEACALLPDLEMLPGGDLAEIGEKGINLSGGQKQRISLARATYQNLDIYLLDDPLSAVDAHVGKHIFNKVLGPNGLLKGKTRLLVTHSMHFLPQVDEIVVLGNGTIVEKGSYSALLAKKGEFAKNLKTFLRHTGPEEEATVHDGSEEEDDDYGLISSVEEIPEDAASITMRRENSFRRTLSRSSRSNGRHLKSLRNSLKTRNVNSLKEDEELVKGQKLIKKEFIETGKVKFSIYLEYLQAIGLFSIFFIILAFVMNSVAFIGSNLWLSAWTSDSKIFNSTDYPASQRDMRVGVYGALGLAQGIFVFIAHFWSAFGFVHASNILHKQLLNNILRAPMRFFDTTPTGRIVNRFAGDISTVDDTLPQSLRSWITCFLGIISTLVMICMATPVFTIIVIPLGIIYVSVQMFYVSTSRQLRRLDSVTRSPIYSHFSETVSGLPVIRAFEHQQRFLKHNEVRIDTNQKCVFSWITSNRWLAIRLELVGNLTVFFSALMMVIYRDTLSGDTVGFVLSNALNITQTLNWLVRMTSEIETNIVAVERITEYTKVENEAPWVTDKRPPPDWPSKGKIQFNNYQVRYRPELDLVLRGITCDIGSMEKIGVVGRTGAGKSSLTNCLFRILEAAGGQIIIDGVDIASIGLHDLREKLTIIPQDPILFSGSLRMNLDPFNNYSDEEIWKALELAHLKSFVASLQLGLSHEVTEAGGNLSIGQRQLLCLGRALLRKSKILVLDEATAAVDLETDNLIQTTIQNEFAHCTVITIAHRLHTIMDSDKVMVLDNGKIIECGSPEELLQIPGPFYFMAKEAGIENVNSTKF

CC(C)n1c(/C=C/C(O)CC(O)CC(=O)O)c(-c2ccc(F)cc2)c2ccccc21 (centres unmarked) [Fluvastatin, fluvastatin]
Km [1]: 2.3 µM | substrate for ABCC2 ([2]; human): not a substrate for ABCC2 | Vmax [3]: 53.6 ± 11.0 pmol · mg protein^−1 · min^−1 | Km at 5 min ([3]; human, MDCKII cells double-transfected with ABCC2 and OATP1B3, pH 7.3, 5-min uptake, read-out: Km): 7 ± 2.5 µM | Km at 5 min [4]: 0.7 µM

C[C@]12CC[C@@H]3c4ccc(OS(=O)(=O)O)cc4CC[C@H]3[C@@H]1CCC2=O [estrone 3-sulfate]
ABCC2-mediated transport in the presence of ATP, enhanced compared to controls [2]: 3.1 fold | transcellular (vectorial) transport, basolateral to apical [5]: transported transcellularly | transcellular (vectorial) transport, basolateral to apical ([5]; listed as [^3H]estrone 3-sulfate): detected

cholecystokinin-8 sulfate [CCK-8]
Km [6]: 8.1 µM

inulin [[^3H]inulin]
transcellular leakage [7]: 1-2 % of the radioactivity added

B1: OATP2B1 (Homo sapiens) (protein)
chain: T3 sequence (O94956 1-709)
notes: expressed in transfected cells; host or cells: MDCKII (canine kidney) ABCC2 single-transfectant, further transfected with pcDNA3.1/Hygro(-)-OATP2B1
Km ([8]; other: cell line ABCC2-OATP2B1): 0.7 ± 0.3 µM | Vmax ([8]; other: cell line ABCC2-OATP2B1): 23.0 ± 2.6 pmol · mg protein^−1 · min^−1 | Km [9]: 3.4 µM

B2: OATP1B1 (Homo sapiens) (protein)
chain: MDQNQHLNKTAEAQPSENKKTRYCNGLKMFLAALSLSFIAKTLGAIIMKSSIIHIERRFEISSSLVGFIDGSFEIGNLLVIVFVSYFGSKLHRPKLIGIGCFIMGIGGVLTALPHFFMGYYRYSKETNINSSENSTSTLSTCLINQILSLNRASPEIVGKGCLKESGSYMWIYVFMGNMLRGIGETPIVPLGLSYIDDFAKEGHSSLYLGILNAIAMIGPIIGFTLGSLFSKMYVDIGYVDLSTIRITPTDSRWVGAWWLNFLVSGLFSIISSIPFFFLPQTPNKPQKERKASLSLHVLETNDEKDQTANLTNQGKNITKNVTGFFQSFKSILTNPLYVMFVLLTLLQVSSYIGAFTYVFKYVEQQYGQPSSKANILLGVITIPIFASGMFLGGYIIKKFKLNTVGIAKFSCFTAVMSLSFYLLYFFILCENKSVAGLTMTYDGNNPVTSHRDVPLSYCNSDCNCDESQWEPVCGNNGITYISPCLAGCKSSSGNKKPIVFYNCSCLEVTGLQNRNYSAHLGECPRDDACTRKFYFFVAIQVLNLFFSALGGTSHVMLIVKIVQPELKSLALGFHSMVIRALGGILAPIYFGALIDTTCIKWSTNNCGTRGSCRTYNSTSFSRVYLGLSSMLRVSSLVLYIILIYAMKKKYQEKDINASENGSVMDEANLESLNKNKHFVPSAGADSETHC
notes: expressed in transfected cells; host or cells: MDCKII (canine kidney), co-expressing ABCC2
Km [10]: 2.4 µM | Vmax [10]: 41.5 ± 5.2 pmol · mg protein^−1 · min^−1 | Km ([8]; other: cell line ABCC2-OATP1B1): 2.4 ± 0.9 µM | Vmax ([8]; other: cell line ABCC2-OATP1B1): 43.4 ± 6.7 pmol · mg protein^−1 · min^−1
